Consider eight compounds from US9771341B2, “Piperazine carbamates and methods of making and using same” (Abide Therapeutics, Inc., priority 2015, dated 2017).

Holding throughout (format): biochemical
For one assay, the target named is T1, FAAH (Mus musculus, UniProt O08914).
T1 construct: Proteomes (mouse brain membrane fraction or cell lysates); from tissue; host or cells: mouse brain membrane fraction (or unspecified cell lysates)
T1 sequence (O08914 1-579): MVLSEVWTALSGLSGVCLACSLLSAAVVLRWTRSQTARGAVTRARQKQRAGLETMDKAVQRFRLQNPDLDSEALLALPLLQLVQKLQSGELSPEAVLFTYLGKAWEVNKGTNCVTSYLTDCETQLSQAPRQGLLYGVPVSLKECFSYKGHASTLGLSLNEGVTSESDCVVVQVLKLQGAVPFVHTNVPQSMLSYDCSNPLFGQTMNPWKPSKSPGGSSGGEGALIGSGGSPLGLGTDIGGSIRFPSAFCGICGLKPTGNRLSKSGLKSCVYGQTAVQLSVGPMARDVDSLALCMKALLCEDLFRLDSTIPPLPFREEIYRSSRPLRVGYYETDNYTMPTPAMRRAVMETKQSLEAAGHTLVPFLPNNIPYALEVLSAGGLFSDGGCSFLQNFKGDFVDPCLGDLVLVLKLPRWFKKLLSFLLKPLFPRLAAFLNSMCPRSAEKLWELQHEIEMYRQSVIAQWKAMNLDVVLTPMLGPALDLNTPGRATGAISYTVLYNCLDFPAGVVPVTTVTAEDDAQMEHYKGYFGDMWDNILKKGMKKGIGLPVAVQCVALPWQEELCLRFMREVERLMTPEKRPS
The assay can be described thus: In vitro competitive activity-based protein profiling (mouse), FAAH. The note with it: for IC50: mouse brain membrane fraction or cell lysates, 30 min preincubation at 37° C, FP-Rh probe; for inhibition at 1 µM: mouse proteome, in vitro. As to the method:
(§1) In Vitro Competitive Activity-Based Protein Profiling (Mouse).
Proteomes (mouse brain membrane fraction or cell lysates) (50 μL, 1.0 mg/mL total protein concentration) were preincubated with varying concentrations of inhibitors at 37° C. After 30 min, FP-Rh (1.0 μL, 50 μM in DMSO) was added and the mixture was incubated for another 30 min at 37° C. Reactions were quenched with SDS loading buffer (50 μL-4×) and run on SDS-PAGE. Following gel imaging, serine hydrolase activity was determined by measuring fluorescent intensity of gel bands corresponding to MAGL, ABHD6 and FAAH using ImageJ 1.43u software.

A further assay has as its target T2, MAGL (Mus musculus, UniProt O35678).
T2 construct: Proteomes (mouse brain membrane fraction or cell lysates); from tissue; host or cells: mouse brain membrane fraction (or unspecified cell lysates)
T2 sequence (O35678 1-303): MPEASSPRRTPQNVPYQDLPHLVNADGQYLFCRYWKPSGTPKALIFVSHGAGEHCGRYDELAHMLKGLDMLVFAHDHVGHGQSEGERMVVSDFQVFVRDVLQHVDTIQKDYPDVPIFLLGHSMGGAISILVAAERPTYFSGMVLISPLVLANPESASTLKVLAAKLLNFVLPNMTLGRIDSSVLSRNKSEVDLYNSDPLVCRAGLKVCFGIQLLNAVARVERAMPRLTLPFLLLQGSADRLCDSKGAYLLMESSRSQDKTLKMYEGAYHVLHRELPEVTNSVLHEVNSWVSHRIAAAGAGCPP
The assay can be described thus: In vitro competitive activity-based protein profiling (mouse), MAGL. Particulars: for IC50: mouse brain membrane fraction or cell lysates, 30 min preincubation at 37° C, FP-Rh probe; for inhibition at 1 µM: mouse proteome, in vitro, read-out: % Inhibition at 1 μM MAGL. As to the method: as §1
(§2) Proteomes (mouse brain membrane fraction or cell lysates) (50 μL, 1.0 mg/mL total protein concentration) were preincubated with varying concentrations of inhibitors at 37° C. After 30 min, FP-Rh (1.0 μL, 50 μM in DMSO) was added and the mixture was incubated for another 30 min at 37° C. Reactions were quenched with SDS loading buffer (50 μL-4×) and run on SDS-PAGE.

Another assay addresses T3, ABHD6 (Mus musculus, UniProt Q8R2Y0).
T3 construct: Proteomes (mouse brain membrane fraction or cell lysates); from tissue; host or cells: mouse brain membrane fraction (or unspecified cell lysates)
T3 sequence (Q8R2Y0 1-336): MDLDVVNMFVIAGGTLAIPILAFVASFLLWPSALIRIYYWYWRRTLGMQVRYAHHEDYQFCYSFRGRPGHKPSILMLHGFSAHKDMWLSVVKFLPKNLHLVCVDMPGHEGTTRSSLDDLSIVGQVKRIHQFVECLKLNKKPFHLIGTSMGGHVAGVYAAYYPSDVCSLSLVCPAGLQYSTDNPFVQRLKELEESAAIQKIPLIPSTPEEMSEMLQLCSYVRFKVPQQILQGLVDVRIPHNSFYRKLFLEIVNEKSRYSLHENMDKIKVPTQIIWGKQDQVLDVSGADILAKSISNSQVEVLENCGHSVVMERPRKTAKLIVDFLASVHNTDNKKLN
As to the kind of experiment: In vitro competitive activity-based protein profiling (mouse), ABHD6. Particulars: for IC50: mouse brain membrane fraction or cell lysates, 30 min preincubation at 37° C, FP-Rh probe; for inhibition at 1 µM: mouse proteome, in vitro, read-out: % Inhibition at 1 μM ABHD6. On the procedure: as §1, §2

Some results are limits rather than exact numbers.

Usually IC50 stands for the concentration that gives 50% inhibition. A low value points to inhibition by little substance. Regarding `C#CCO[C@@H]1CCN(c2cc(C(F)(F)F)ccc2CN2CCN(C(=O)OC(C(F)(F)F)C(F)(F)F)CC2)C1` [Example 2, 1,1,1,3,3,3-hexafluoropropan-2-yl (R)-4-(2-(3-(prop-2-yn-1-yloxy)pyrrolidin-1-yl)-4-(trifluoromethyl)benzyl)piperazine-1-carboxylate], the figures for the 50% inhibitory concentration (IC50) on FAAH, at MAGL and on ABHD6 were above 1000 nM, below 100 nM and above 1000 nM, respectively.
As to `COC(=O)c1cc(CN2CCN(C(=O)OC(C(F)(F)F)C(F)(F)F)CC2)ccc1N1CCOCC1` [Example 5, 1,1,1,3,3,3-hexafluoropropan-2-yl 4-(3-(methoxycarbonyl)-4-morpholinobenzyl)piperazine-1-carboxylate], the IC50 at FAAH was above 1000 nM; on MAGL, below 100 nM; on ABHD6, 100 to 1000 nM.
Usually inhibition stands for the share of the control response that was lost under treatment. On to `COc1c(CN2CCN(C(C)=O)CC2)cccc1CN1CCN(C(=O)OC(C(F)(F)F)C(F)(F)F)CC1` [Example 7, 1,1,1,3,3,3-hexafluoropropan-2-yl 4-(3-((4-acetylpiperazin-1-yl)methyl)-2-methoxybenzyl)piperazine-1-carboxylate], for which the inhibition at 1 µM at FAAH was below 25%; on MAGL, above 75%; on ABHD6, above 75%. Further, the IC50 is above 1000 nM at FAAH, 100 to 1000 nM at MAGL and 100 to 1000 nM on ABHD6.
In the case of `Cc1c(CN2CCN(C(=O)OC(C(F)(F)F)C(F)(F)F)CC2)cccc1CN1CCN(S(C)(=O)=O)CC1` [Example 8, 1,1,1,3,3,3-hexafluoropropan-2-yl 4-(2-methyl-3-((4-(methylsulfonyl)piperazin-1-yl)methyl)benzyl)piperazine-1-carboxylate], the figures for the inhibition at 1 µM on FAAH, on MAGL and on ABHD6 were below 25%, above 75% and above 75%, respectively. Also, the results for the IC50 at FAAH, at MAGL and at ABHD6 were above 1000 nM, below 100 nM and below 100 nM, respectively.
Take `COc1c(CN2CCC(F)CC2)cccc1CN1CCN(C(=O)OC(C(F)(F)F)C(F)(F)F)CC1` [Example 9, 1,1,1,3,3,3-hexafluoropropan-2-yl 4-(3-((4-fluoropiperidin-1-yl)methyl)-2-methoxybenzyl)piperazine-1-carboxylate]: the inhibition at 1 µM on FAAH was below 25%; at MAGL, above 75%; on ABHD6, above 75%. Also, the IC50 was above 1000 nM on FAAH, below 100 nM on MAGL and 100 to 1000 nM at ABHD6.
Take `Cc1c(CN2CCC(NS(C)(=O)=O)CC2)cccc1CN1CCN(C(=O)OC(C(F)(F)F)C(F)(F)F)CC1` [Example 10, 1,1,1,3,3,3-hexafluoropropan-2-yl 4-(2-methyl-3-((4-(methylsulfonamido)piperidin-1-yl)methyl)benzyl)piperazine-1-carboxylate]: the inhibition at 1 µM is below 25% at FAAH, above 75% on MAGL and above 75% at ABHD6. For the same compound, the half-inhibitory concentration (IC50) at FAAH was above 1000 nM; on MAGL, below 100 nM; on ABHD6, 100 to 1000 nM.
As for `CC(=O)NC1CCN(Cc2cccc(CN3CCN(C(=O)OC(C(F)(F)F)C(F)(F)F)CC3)c2C)CC1` [Example 11, 1,1,1,3,3,3-hexafluoropropan-2-yl 4-(3-((4-acetamidopiperidin-1-yl)methyl)-2-methylbenzyl)piperazine-1-carboxylate], the inhibition at 1 µM on FAAH was below 25%; at MAGL, above 75%; at ABHD6, 25 to 75%. Besides, the half-maximal inhibitory concentration (IC50) is above 1000 nM at FAAH, 100 to 1000 nM on MAGL and 100 to 1000 nM at ABHD6.
Turning to `Cc1c(CN2CCN(C(=O)OC(C(F)(F)F)C(F)(F)F)CC2)cccc1CN1CCC(F)(F)CC1` [Example 12, 1,1,1,3,3,3-hexafluoropropan-2-yl 4-(3-((4,4-difluoropiperidin-1-yl)methyl)-2-methylbenzyl)piperazine-1-carboxylate], the inhibition at 1 µM was below 25% on FAAH, above 75% on MAGL and above 75% at ABHD6. Further, the values for the half-maximal inhibitory concentration (IC50) at FAAH, at MAGL and on ABHD6 were above 1000 nM, below 100 nM and 100 to 1000 nM, respectively.
